Measurements from the NIST ThermoML archive (doi:10.1016/j.tca.2015.01.022).
Where “and” joins values, the source holds several entries; their conditions need not be identical. Equal entries are not always repeated.

Assay: molar heat capacity at constant pressure
Conditions: 101.33 kPa, Small (less than 1 g) adiabatic calorimetry

CCOS(=O)(=O)[O-].CCn1cc[n+](C)c1 [1-ethyl-3-methylimidazolium ethyl sulfate]
Conditions	molar heat capacity at constant pressure
180.75 K, Glass	245 J/K/mol
181.34 K, Glass	247.6 J/K/mol
182.03 K, Glass	250.7 J/K/mol
182.57 K, Glass	253.8 J/K/mol
183.25 K, Glass	259.2 J/K/mol
183.91 K, Glass	266.1 J/K/mol
184.33 K, Glass	269.6 J/K/mol
185.05 K, Liquid	286.4 J/K/mol
185.68 K, Liquid	306.2 J/K/mol
185.91 K, Liquid	312.8 J/K/mol
186.66 K, Liquid	340.5 J/K/mol
187.36 K, Liquid	351.6 J/K/mol and 351.8 J/K/mol
188.23 K, Liquid	351.6 J/K/mol
188.86 K, Liquid	353 J/K/mol
189.2 K, Liquid	353 J/K/mol
189.84 K, Liquid	354 J/K/mol
190 K, Liquid	354.1 J/K/mol
190.38 K, Liquid	354.4 J/K/mol
191.46 K, Liquid	354.4 J/K/mol
192.04 K, Liquid	354.7 J/K/mol
193.08 K, Liquid	354.7 J/K/mol
193.85 K, Liquid	354.7 J/K/mol
194.7 K, Liquid	354.7 J/K/mol
195.65 K, Liquid	354.9 J/K/mol
196.33 K, Liquid	354.9 J/K/mol
197.47 K, Liquid	355.1 J/K/mol
197.95 K, Liquid	355.1 J/K/mol
199.29 K, Liquid	355.4 J/K/mol
199.58 K, Liquid	355.4 J/K/mol
200 K, Liquid	355.5 J/K/mol
201.11 K, Liquid	355.6 J/K/mol
201.27 K, Liquid	355.6 J/K/mol
201.65 K, Liquid	355.9 J/K/mol
202.93 K, Liquid	356.1 J/K/mol
203 K, Liquid	355.9 J/K/mol
203.57 K, Liquid	356.1 J/K/mol
204.74 K, Liquid	356.1 J/K/mol
204.76 K, Liquid	356.6 J/K/mol
205.5 K, Liquid	356.3 J/K/mol
206.48 K, Liquid	356.6 J/K/mol
206.59 K, Liquid	356.8 J/K/mol
207.44 K, Liquid	356.8 J/K/mol
208.23 K, Liquid	356.8 J/K/mol
208.43 K, Liquid	357 J/K/mol
209.37 K, Liquid	357.3 J/K/mol
209.97 K, Liquid	357 J/K/mol
210 K, Liquid	357.2 J/K/mol
210.26 K, Liquid	357.3 J/K/mol
211.31 K, Liquid	357.5 J/K/mol
211.72 K, Liquid	357.5 J/K/mol
212.11 K, Liquid	357.7 J/K/mol
213.25 K, Liquid	358 J/K/mol
213.47 K, Liquid	357.7 J/K/mol
213.95 K, Liquid	358 J/K/mol
215.19 K, Liquid	358.2 J/K/mol
215.23 K, Liquid	358 J/K/mol
215.8 K, Liquid	358.5 J/K/mol
217.12 K, Liquid	358.7 J/K/mol
217.65 K, Liquid	358.7 J/K/mol
219.06 K, Liquid	359.2 J/K/mol
219.5 K, Liquid	359.2 J/K/mol
220 K, Liquid	359.2 J/K/mol
221 K, Liquid	359.4 J/K/mol
221.36 K, Liquid	359.6 J/K/mol
222.94 K, Liquid	359.9 J/K/mol
223.21 K, Liquid	359.9 J/K/mol
224.88 K, Liquid	360.3 J/K/mol
225.07 K, Liquid	360.3 J/K/mol
226.82 K, Liquid	361.1 J/K/mol
226.93 K, Liquid	360.8 J/K/mol
228.76 K, Liquid	361.3 J/K/mol
228.8 K, Liquid	361.3 J/K/mol
230 K, Liquid	361.6 J/K/mol
230.66 K, Liquid	361.8 J/K/mol
230.7 K, Liquid	361.8 J/K/mol
232.53 K, Liquid	362.2 J/K/mol
232.64 K, Liquid	362.2 J/K/mol
234.39 K, Liquid	362.7 J/K/mol
234.58 K, Liquid	362.7 J/K/mol
236.26 K, Liquid	363.2 J/K/mol
236.53 K, Liquid	363.4 J/K/mol
238.13 K, Liquid	363.9 J/K/mol
238.47 K, Liquid	363.9 J/K/mol
240 K, Liquid	364.3 J/K/mol
240.01 K, Liquid	364.4 J/K/mol
240.41 K, Liquid	364.6 J/K/mol
241.88 K, Liquid	364.8 J/K/mol
242.36 K, Liquid	365.1 J/K/mol
243.76 K, Liquid	365.3 J/K/mol
244.3 K, Liquid	365.5 J/K/mol
245.64 K, Liquid	365.8 J/K/mol
246.24 K, Liquid	366.2 J/K/mol
247.52 K, Liquid	366.5 J/K/mol
248.19 K, Liquid	366.7 J/K/mol
249.39 K, Liquid	367 J/K/mol
250 K, Liquid	367.1 J/K/mol
250.13 K, Liquid	367.4 J/K/mol
251.27 K, Liquid	367.4 J/K/mol
252.07 K, Liquid	367.9 J/K/mol
253.16 K, Liquid	368.1 J/K/mol
254.02 K, Liquid	368.6 J/K/mol
255.04 K, Liquid	368.6 J/K/mol
255.96 K, Liquid	369.1 J/K/mol
256.92 K, Liquid	369.1 J/K/mol
257.91 K, Liquid	369.8 J/K/mol
258.8 K, Liquid	369.8 J/K/mol
259.85 K, Liquid	370.3 J/K/mol
260 K, Liquid	370.1 J/K/mol
260.69 K, Liquid	370.3 J/K/mol
261.8 K, Liquid	370.7 J/K/mol
263.74 K, Liquid	371.4 J/K/mol
265.69 K, Liquid	372.2 J/K/mol
267.63 K, Liquid	372.6 J/K/mol
269.58 K, Liquid	373.3 J/K/mol
270 K, Liquid	373.3 J/K/mol
271.52 K, Liquid	373.8 J/K/mol
273.46 K, Liquid	374.3 J/K/mol
275.41 K, Liquid	375 J/K/mol
277.35 K, Liquid	375.7 J/K/mol
279.3 K, Liquid	376.2 J/K/mol
280 K, Liquid	376.4 J/K/mol
281.24 K, Liquid	376.6 J/K/mol
283.19 K, Liquid	377.4 J/K/mol
285.13 K, Liquid	378.1 J/K/mol
287.08 K, Liquid	378.3 J/K/mol
289.02 K, Liquid	379.2 J/K/mol
290 K, Liquid	379.6 J/K/mol
290.96 K, Liquid	380 J/K/mol
292.91 K, Liquid	380.7 J/K/mol
294.85 K, Liquid	381.4 J/K/mol
296.79 K, Liquid	382.1 J/K/mol
298.15 K, Liquid	382.8 J/K/mol
298.74 K, Liquid	383 J/K/mol
300 K, Liquid	383.6 J/K/mol
300.68 K, Liquid	383.7 J/K/mol
302.62 K, Liquid	384.7 J/K/mol
304.57 K, Liquid	385.4 J/K/mol
306.51 K, Liquid	386.3 J/K/mol
308.45 K, Liquid	387.3 J/K/mol
310 K, Liquid	388 J/K/mol
310.39 K, Liquid	388 J/K/mol
312.34 K, Liquid	388.9 J/K/mol
314.28 K, Liquid	389.6 J/K/mol
316.22 K, Liquid	390.6 J/K/mol
318.17 K, Liquid	391.5 J/K/mol
320 K, Liquid	392.6 J/K/mol
320.11 K, Liquid	392.5 J/K/mol
322.05 K, Liquid	393.7 J/K/mol
324 K, Liquid	394.4 J/K/mol
325.94 K, Liquid	395.3 J/K/mol
327.89 K, Liquid	396.3 J/K/mol
329.83 K, Liquid	397.2 J/K/mol
330 K, Liquid	397.3 J/K/mol
331.77 K, Liquid	398.1 J/K/mol
333.72 K, Liquid	399.1 J/K/mol
335.66 K, Liquid	400.3 J/K/mol
337.61 K, Liquid	401.5 J/K/mol
339.55 K, Liquid	402.2 J/K/mol
340 K, Liquid	402.3 J/K/mol
341.5 K, Liquid	403.1 J/K/mol
343.44 K, Liquid	404.3 J/K/mol
345.39 K, Liquid	405 J/K/mol
347.33 K, Liquid	405.9 J/K/mol
349.28 K, Liquid	407.1 J/K/mol
350 K, Liquid	407.5 J/K/mol
351.22 K, Liquid	408.1 J/K/mol
353.17 K, Liquid	409.3 J/K/mol
355.11 K, Liquid	410.2 J/K/mol
357.06 K, Liquid	411.1 J/K/mol
359 K, Liquid	412.1 J/K/mol
360 K, Liquid	412.8 J/K/mol
360.94 K, Liquid	413.3 J/K/mol
362.88 K, Liquid	414.2 J/K/mol
364.83 K, Liquid	415.2 J/K/mol
366.77 K, Liquid	416.3 J/K/mol
370 K, Liquid	418.4 J/K/mol
